Source: patent publication US20210172934A1, “SINGLE CELL CLONING APPROACHES FOR BIOLOGICAL STUDIES” (priority 2018, published 2021)

Assays:
[1] = tested on: Met-1 cells; experiment: In vitro chemosensitivity study (CellTiter-Glo, ATP as surrogate for viability); format: cell-based, murine; conditions: 72 hours incubation; ATP levels (CellTiter-Glo)
Procedure: (§1) 4,000 Met-1 cells were plated in quadruplicates in 96-well plates containing growth media. The next day, vehicle (PBS) or chemotherapy (doxorubicin: 0.33 nM-2.2 ∝M; paclitaxel: 14 μM-160 μM) was added to the plate and incubated for 72 hours. ATP levels were quantified as a surrogate measure for viability (CellTiter-Glo, Promega) using a luminometer (Perkin-Elmer).
We next tested responsiveness of Met-1 mammary carcinoma to combination doxorubicin (A), cyclophosphamide (C), and paclitaxel (T) chemotherapy, AC-T, a standard of care chemotherapy regimen for breast cancer patients with ER-negative disease. We first tested the sensitivity of Met-1 cells to doxorubicin and paclitaxel in vitro and performed an initial in vivo experiment to identify a therapeutically relevant, well-tolerated combinatorial dose.

[2] = tested on: MT-2 WT and KO cell lines; experiment: In vitro sensitivity of MT-2 WT and KO cell lines to chemotherapy; format: cell-based, murine
Procedure: as §1, with “Met-1” left out

SMILES	viability of Met-1 cells in vitro [1]	(enhanced) sensitivity of MT-2 KO versus WT in vitro [2]
CC(=O)O[C@H]1C(=O)[C@@]2(C)[C@H]([C@H](OC(=O)c3ccccc3)[C@]3(O)C[C@H](OC(=O)[C@H](O)[C@@H](NC(=O)c4ccccc4)c4ccccc4)C(C)=C1C3(C)C)[C@]1(OC(C)=O)CO[C@@H]1C[C@@H]2O [paclitaxel]	significantly decreased viability	not apparent
COc1cccc2c1C(=O)c1c(O)c3c(c(O)c1C2=O)C[C@@](O)(C(=O)CO)C[C@@H]3O[C@H]1C[C@H](N)[C@H](O)[C@H](C)O1 [doxorubicin, Doxorubicin]	significantly decreased viability	not apparent
